Reference: patent publication US20050113371A1, “Antifungal agent for topical use” (priority 2002, published 2005)
Like-named read-outs stand apart in the source and are kept apart here.

Assays:
[1] = system: Trichophyton mentagrophytes; assay: Antifungal activity on Sabouraud agar medium, MIC and FIC index (Test Examples 1 and 2); assay type: cell-based; details: for MIC: Trichophyton mentagrophytes, 168 h, read-out: Minimum inhibitory concentration (MIC); for FIC index obtained by the combination of amorolfine hydrochloride with another medicine: Test Example 1, amorolfine hydrochloride + medicine at mass ratio 1:1
Description: (§1) Amorolfine hydrochloride and each specimen (hereinafter referred to as “medicine”) at a mass ratio of 1:1 were dissolved in dimethyl sulfoxide (DMSO). Two-fold dilution series were prepared with DMSO. In the determination of the antifungal activity, the medicine and the medium were mixed together at a ratio of 1:99.
(§2) Sabouraud agar medium (Eiken) was used as a susceptibility determination medium. A microbe suspension containing 10^6 spores/mL of Candida albicans or about 10^6 conidia/mL of ringworm fungus was prepared. 5 μl of the suspension was inoculated on the Sabouraud agar medium containing the medicine with a micro-planter (a product of Sakuma Seisakusho). Candida albicans was cultured for 2 days and the tinea was cultured for 7 days. […]

Trichophyton rubrum = assay: as above; assay type: cell-based; details: for MIC: Trichophyton rubrum, 168 h, read-out: Minimum inhibitory concentration (MIC); for FIC index obtained by the combination of amorolfine hydrochloride with another medicine: Test Example 1, amorolfine hydrochloride + medicine at mass ratio 1:1
Description: as §1, §2

Candida albicans = assay: as above; assay type: cell-based; details: for MIC: Candida albicans, 48 h, read-out: Minimum inhibitory concentration (MIC); for FIC index obtained by the combination of amorolfine hydrochloride with another medicine: Test Example 1, amorolfine hydrochloride + medicine at mass ratio 1:1
Description: as §1
(§3) Sabouraud agar medium (Eiken) was used as a susceptibility determination medium. A microbe suspension containing 10^6 spores/mL of Candida albicans or about 10^6 conidia/mL of ringworm fungus was prepared. 5 μl of the suspension was inoculated on the Sabouraud agar medium containing the medicine with a micro-planter (a product of Sakuma Seisakusho). Candida albicans was cultured for 2 days and the tinea was cultured for 7 days.
The effect obtained by the combination was judged on the basis of the following standards (FIC index): • >2: antagonism • 2>and 1<: additive action • 1>: potentiation
(1) Amorolfine hydrochloride and each specimen (hereinafter referred to as “medicine”) at a mass ratio of 100:1 to 1:100 were dissolved in dimethyl sulfoxide (DMSO). Two-fold dilution series were prepared with DMSO. In the determination of the antifungal activity, the medicine and the medium were mixed together at a ratio of 1:99.
(2) Amorolfine hydrochloride and each specimen (hereinafter referred to as “medicine”) at a mass ratio of 1:3 to 3:1 were dissolved in dimethyl sulfoxide (DMSO). Two-fold dilution series were prepared with DMSO. In the determination of the antifungal activity, the medicine and the medium were mixed together at a ratio of 1:99.
as §3, with “conidia/mL of each of two kinds of ringworm fungus” for “conidia/mL of ringworm fungus”, “agar medium with a” for “agar medium containing the medicine with a”, “and the Tinea fungus was cultured” for “and the tinea was cultured”

[2] = system: Trichophyton mentagrophytes TIMM 1189; assay: Tinea infection model of guinea pigs, culture test (Test Example 3); assay type: in vivo; details: 0.75 mass % in polyethylene glycol 400 (combination 1:2), 0.1 mL once a day for 5 days from 3 days after inoculation; culture on 5th day after last application; 10 loci
Description: Amorolfine hydrochloride and each specimen (hereinafter referred to as “medicine”) at a mass ratio of 1:2 were dissolved in polyethylene glycol 400 to obtain a final concentration of 0.75% mass ratio. Each of amorolfine hydrochloride and the medicines was separately dissolved in polyethylene glycol 400 to obtain solutions having the final concentration of 0.75 mass %.
Male Hartley guinea pigs (Japan SLC Co., Ltd.; 6 weeks) were used. In the course of the test, they were kept separately from one another in an isolator (Negative rack, CLEA JAPAN, Inc.). They could freely have a solid food (G standard, Nihon Nosan Kogyo KK) and water.
Trichophyton mentagrophytes TIMM 1189 was cultured on slant Sabouraud glucose agar medium at 27° C. for 14 days. Then, sterilized saline containing 0.05% of Tween 80 was added thereto to obtain conidia. The resultant suspension was filtered through a cell strainer (FALCON Co., Ltd.) to remove large mycelian masses. The number of conidia was counted with hemocytometer. The conidia were diluted to 4×10^7/mL with sterilized saline containing 0.05% of Tween 80 to obtain the conidial suspension for inoculation.
The back of each guinea pig was shaved. Then, a circular inoculation part having a diameter of 2 cm was positioned on both sides of the spinal column. A gummed tape was applied thereto and then peeled. These steps was repeated three times, whereby the hair was pulled out of the skin in both parts and, at the same time, the top of the corneous layer of the skin was peeled off. The remaining hair was completely removed with tweezers. […]
When at least one of the 10 small pieces taken from one inoculated locus of the skin was the positive after the culture, the inoculated locus was judged to be positive. The ratio of positive loci after culture was calculated from the number of the cultured positive pieces in the total 10 inoculated loci in each experiment group.
The number of the cultured positive small pieces in the inoculated portion was scored as will be described below to determine the infection. […]

[3] = rats, oral; administration from before the pregnancy to the lactation period or perinatal period/lactation period; cited from earlier work
[4] = cited from earlier work
[5] = cited from earlier work; remark: listed apart in the source
[6] = cited from earlier work; remark: listed apart in the source
Candida = details: cited from earlier work
[7] = in vivo; cited from earlier work
[8] = rabbit, in vivo; cited from earlier work
[9] = Test Example 2, geometric mean MIC of two strains, cultured 7 days

CCC(C)(C)c1ccc(CC(C)CN2CC(C)OC(C)C2)cc1.Cl (racemic) [amorolfine hydrochloride, (±)-cis-2,6-dimethyl-4-[3-[4-(1,1-dimethylpropyl)phenyl]-2-methylpropyl]-morpholine monohydrochloride] gave an MIC [1] of 0.031 µg/mL, an MIC (Trichophyton rubrum) of 0.016 µg/mL and an MIC (Candida albicans) of 1 µg/mL. The “rate of positive loci after culture” value [2] was 100%, the “dose with an influence on the survival rate of newborn babies” value [3] was “at least 10 mg/kg/day” and the LD50 ([4]; mice, intraperitoneal injection, female) was 239 mg/kg. For the same compound, the LD50 ([4]; mice, intraperitoneal injection, male) was 205 mg/kg, the LD50 ([4]; mice, intravenous injection, female) was 112 mg/kg and the LD50 ([4]; mice, intravenous injection, male) was 141 mg/kg. For the same compound, the LD50 ([4]; mice, oral, female) was 2406 mg/kg, the LD50 ([4]; mice, oral, male) was 2514 mg/kg and the LD50 ([4]; mice, subcutaneous, male and female) was > 5000 mg/kg. The LD50 ([5]; rats, intraperitoneal injection, female) was 465 mg/kg, the LD50 ([5]; rats, intraperitoneal injection, male) was 468 mg/kg and the LD50 ([5]; rats, oral, female) was 1756 mg/kg. For the same compound, the LD50 ([5]; rats, oral, male) was 1960 mg/kg, the LD50 ([5]; rats, subcutaneous, male and female) was > 2000 mg/kg and the LD50 ([6]; dogs, oral, male and female) was > 1000 mg/kg. For the same compound, the LD50 ([6]; dogs, subcutaneous, male) was > 2500 mg/kg.
In the case of Cc1cc(C2CCCCC2)n(O)c(=O)c1.NCCO [Ciclopyrox olamine], the “FIC index obtained by the combination of amorolfine hydrochloride with another medicine” value (“FIC index obtained by the combination” for short) ([1]; cultured 7 days) is reported as 1.0, the “FIC index obtained by the combination” value (Trichophyton rubrum; cultured 7 days) is reported as 1.0 and the “FIC index obtained by the combination” value (Candida albicans; cultured 2 days) is reported as 0.38.
With N#C/C(=C1/SCC(c2ccccc2Cl)S1)n1ccnc1 (centres unmarked) [Lanoconazole] the “FIC index obtained by the combination” value ([1]; cultured 7 days) was 1.00, the “FIC index obtained by the combination” value (Trichophyton rubrum; cultured 7 days) was 1.25 and the “FIC index obtained by the combination” value (Candida albicans; cultured 2 days) was 0.53.
For Cc1cccc(N(C)C(=S)Oc2ccc3ccccc3c2)c1 [Tolnaftate], the “FIC index obtained by the combination” value ([1]; cultured 7 days) was 1.25, the “FIC index obtained by the combination” value (Trichophyton rubrum; cultured 7 days) was 0.35 and the “FIC index obtained by the combination” value (Candida albicans; cultured 2 days) was 0.38.
With CN(Cc1ccc(C(C)(C)C)cc1)Cc1cccc2ccccc12.Cl [butenafine hydrochloride, N-4-tert-butylbenzyl-N-methyl-1-naphthalenemethylamine hydrochloride] the “FIC index obtained by the combination” value ([1]; cultured 7 days) was 0.49, the MIC [1, 9] was 0.016 µg/mL and the “FIC index obtained by the combination” value (Trichophyton rubrum; cultured 7 days) was 0.38. The MIC (Trichophyton rubrum; [9]) was 0.004 µg/mL, the MIC (Candida albicans; Test Example 2, geometric mean MIC of two strains, cultured 2 days) was > 8 µg/mL and the “FIC index obtained by the combination” value (Candida albicans; cultured 2 days) was 0.38. For the same compound, the “Minimum inhibitory concentration (MIC)” value (Candida albicans; Test Example 2, geometric mean MIC of two strains, cultured 2 days, listed as B, hydrochloride) was >8.0 µg/mL, the “rate of positive loci after culture” value [2] was 100% and the “antifungal effect on Candida” value (Candida) was “ineffective”. For the same compound, the LD50 ([4]; ICR male and female mice, intravenous injection) was > 140 mg/kg, the LD50 ([4]; ICR male and female mice, oral) was > 5000 mg/kg and the LD50 ([4]; ICR male and female mice, percutaneous) was > 800 mg/kg. The LD50 ([4]; ICR male and female mice, subcutaneous) was > 200 mg/kg, the LD50 ([5]; Wistar rats, intravenous injection, female) was ≥ 100 mg/kg and the LD50 ([5]; Wistar rats, intravenous injection, male) was > 100 mg/kg. For the same compound, the LD50 ([5]; Wistar rats, oral, male and female) was > 4000 mg/kg, the LD50 ([5]; Wistar rats, percutaneous, male and female) was > 1000 mg/kg and the LD50 ([5]; Wistar rats, subcutaneous, male and female) was > 150 mg/kg. The LD50 ([6]; Beagle dogs, male, oral) was > 5000 mg/kg, the LD50 ([6]; Beagle dogs, male, percutaneous) was > 100 mg/kg and the “toxicity on the reproduction or development” value [7] was “No toxicity was found”. For the same compound, the localized irritation [8] was “weak”.
